Laboratory results reported in US20260248165A1, “A SWEETENER OR SWEETNESS ENHANCER COMPOSITION” (Analyticon Discovery – Zweigniederlassung der BRAIN Biotech …, priority 2022, published 2026).

What was measured:
[1] = 5% sucrose in water; concentration of 100 μm; cited from earlier work
[2] = J. Agric. Food Chem. 2017, 65, 2357-2363; cited from earlier work
[3] = Organoleptic test of the compounds against sucrose (intrinsic sweetness); type: in vivo; design: key: 3: sweeter than the control solution; 2: sweetness comparable with the control solution; 1: less sweet than the control solution but still sweet; 0: no intrinsic sweetness; conditions: 3-4 panelists; for Sweetness 50 ppm: compound 50 ppm in mineral water vs sucrose 20 g/l; for Sweetness 200 ppm: compound 200 ppm in mineral water vs sucrose 20 g/l
Protocol: The isolated pure compounds were dissolved in non-carbonated mineral water (“Evian”) in a concentration of 0.2 mg/ml (200 ppm) and 0.05 mg/ml (50 ppm). The sweet taste of each sample was compared by a panel of 3-4 panelists with a solution of sucrose in a concentration of 20 g/l.

[4] = Organoleptic test in combination with Rebaudioside M against Rebaudioside M (Rebaudioside M enhancement), 2-AFC; type: in vivo; design: key: 3: sweeter than the control solution; 2: sweetness comparable with the control solution; 1: less sweet than the control solution but still sweet; 0: no intrinsic sweetness; conditions: 12 to 15 panelists; for Sweet taste enhancement, control solution Reb M 150 ppm: compound in 150 ppm Rebaudioside M solution vs Reb M 150 ppm; for Sweet taste enhancement, control solution Reb M 170 ppm: compound in 150 ppm Rebaudioside M solution vs Reb M 170 ppm; for Sweet taste enhancement, control solution Reb M 190 ppm: compound in 150 ppm Rebaudioside M solution vs Reb M 190 ppm; for Sweet taste enhancement, control solution Reb M 210 ppm: compound in 150 ppm Rebaudioside M solution vs Reb M 210 ppm
Protocol: The isolated pure compounds were dissolved in non-carbonated mineral water (“Evian”) in a concentration of 50 ppm (0.05 mg/ml), 25 ppm (0.025 mg/ml), […] (0.0125 mg/ml) and […]. The sweet taste of each sample was detected by a panel of 3-4 panelists to detect the sweetness perception level. The highest concentration below the sweetness perception level was used for the evaluation of the sweet taste enhancement of Rebaudioside M.
A solution of the isolated compound in a concentration below the sweetness perception level was dissolved in 150 ppm Rebaudioside M solution. […] E2164-16_Standard Test Method for Directional Difference Test). The panelists were trained to differentiate between the sweetness of a 150 ppm, 170 ppm, 190 ppm, and a 210 ppm Rebaudioside M solution.

[5] = Organoleptic comparison of Compound 1 with Millettiasaponin A; type: in vivo; conditions: both at 200 ppm and 50 ppm in mineral water; 4 panelists
Protocol: Milettiasaponin A was published as sweet taste principle of an extract prepared from Derris eriocarpa (150× sweeter than sucrose) [J. Agric. Food Chem. 2017, 65, 2357-2363]. Milletiasaponin A has an additional hydroxyl group at C-24 compared to compound 1. Both compounds were dissolved in non-carbonated mineral water (“Evian”) in a concentration of 0.2 mg/ml (200 ppm) and 0.05 mg/ml (50 ppm). The sweet taste of both samples was compared by a panel of 4 panelists.

[6] = Organoleptic test in combination with sucrose against sucrose (sucrose enhancement), 2-AFC; type: in vivo; design: key: 3: sweeter than the control solution; 2: sweetness comparable with the control solution; 1: less sweet than the control solution but still sweet; 0: no intrinsic sweetness; conditions: 12 to 15 panelists; for Sweet taste enhancement of sucrose, control solution Sucrose 6%: compound 50 ppm in 6% sucrose solution vs 6% sucrose; for Sweet taste enhancement of sucrose, control solution Sucrose 7%: compound 50 ppm in 6% sucrose solution vs 7% sucrose; for Sweet taste enhancement of sucrose, control solution Sucrose 8%: compound 50 ppm in 6% sucrose solution vs 8% sucrose; for Sweet taste enhancement of sucrose, control solution Sucrose 9%: compound 50 ppm in 6% sucrose solution vs 9% sucrose
Protocol: The isolated pure compounds were dissolved in non-carbonated mineral water (“Evian”) in a concentration of 50 ppm (0.05 mg/ml), 25 ppm (0.025 mg/ml), […] (0.0125 mg/ml) and […] (0.00625 mg/ml). The sweet taste of each sample was detected by a panel of 4 panelists to detect the sweetness perception level. The highest concentration below the sweetness perception level was used for the evaluation of the sweet taste enhancement of sucrose.
A solution of the isolated compound in a concentration below the sweetness perception level was dissolved in 6% sucrose solution. The sweet taste of this sample was compared to the sweet taste of a 6% sucrose solution by a panel of 12 to 15 panelists in a two-alternative forced-choice test (2-AFC. E2164-16_Standard Test Method for Directional Difference Test). The panelists were trained to differentiate between the sweetness of a 6%, 7%, 8%, and 9% sucrose solution. The sweetness of the solution of the enhancer in 6% sucrose was compared with sucrose solutions in concentrations of 6%, 7%, 8%, and 9%.

| Compound | Enhancement of the sweetness of sucrose [1] [%] | Sweetness relative to sucrose [2] [× sweeter than sucrose] | Sweetness 50 ppm [3] | Sweetness 200 ppm [3] | Sweet taste enhancement, control solution Reb M 150 ppm [4] | Sweet taste enhancement, control solution Reb M 170 ppm [4] | Sweet taste enhancement, control solution Reb M 190 ppm [4] | Sweet taste enhancement, control solution Reb M 210 ppm [4] | Sweet taste compared with Milletiasaponin A [5] | Sweet taste enhancement of sucrose, control solution Sucrose 6% [6] | Sweet taste enhancement of sucrose, control solution Sucrose 7% [6] | Sweet taste enhancement of sucrose, control solution Sucrose 8% [6] | Sweet taste enhancement of sucrose, control solution Sucrose 9% [6] |
| --- | --- | --- | --- | --- | --- | --- | --- | --- | --- | --- | --- | --- | --- |
| COc1ccc([C@@H]2CC(=O)c3c(O)cc(O)cc3O2)cc1O [hesperetin] | 41 | – | – | – | – | – | – | – | – | – | – | – | – |
| CC(=O)O[C@@H]1C[C@](C)(C(=O)O)C[C@H]2C3=CCC4[C@@]5(C)CC[C@H](O[C@@H]6O[C@H](C(=O)O)[C@@H](O)[C@H](O)[C@H]6O[C@@H]6O[C@H](CO)[C@H](O)[C@H](O)[C@H]6O[C@@H]6O[C@@H](C)[C@H](O)[C@@H](O)[C@H]6O)[C@](C)(CO)C5CC[C@@]4(C)[C@]3(C)CC[C@@]12C (stereo partly shown) [Milettiasaponin A] | – | 150 | – | – | – | – | – | – | – | – | – | – | – |
| CC(=O)O[C@@H]1C[C@](C)(C(=O)O)C[C@H]2C3=CCC4[C@@]5(C)CC[C@H](O[C@@H]6O[C@H](C(=O)O)[C@@H](O)[C@H](O)[C@H]6O[C@@H]6O[C@H](CO)[C@H](O)[C@H](O)[C@H]6O[C@@H]6O[C@@H](C)[C@H](O)[C@@H](O)[C@H]6O)C(C)(C)C5CC[C@@]4(C)[C@]3(C)CC[C@@]12C (stereo partly shown) [Compound 1, 24-Desoxy- Millettiasaponin A] | – | – | 3 | 3 | 3 | 3 | 2 | 2 | sweeter with less aftertaste than Milletiasaponin A | 3 | 3 | 3 | 3 |
| CCCCCc1cc2cc(O)cc(Oc3c(O)cc(O)cc3CCCCC)c2c(=O)o1 [Compound 4, Physodone] | – | – | 0 | 0 | 3 | 3 | 3 | 1 | – | 3 | 3 | 3 | 2 |
| COc1cc([C@H]2c3cc(O)c(OC)cc3C[C@@H](CO[C@@H]3O[C@H](CO)[C@@H](O)[C@H](O)[C@H]3O)[C@@H]2CO)ccc1O [Compound 3, Isolariciresinol 9-glucoside] | – | – | 0 | 0 | 3 | 3 | 2 | 1 | – | 3 | 3 | 3 | 2 |
| CC1=C(C(=O)O[C@@H]2O[C@H](CO[C@@H]3OC[C@@H](O)[C@H](O)[C@H]3O)[C@@H](O)[C@H](O)[C@H]2O)C(C)(C)CCC1 [Compound 2, Jasminoside M] | – | – | 0 | 0 | 3 | 3 | 2 | 1 | – | 3 | 3 | 3 | 2 |
